Data: US12527849B2, “Apparatus for determining administration form of a composition of an engineered virus-based nanoparticle for a treatment of an autoimmune condition” (Diamante Srl, priority 2021, dated 2026)

Experiments:
Type in all cases: in vivo
IL-17A = test: Pro-inflammatory cytokines in sera of CIA Collagen mice (ELISA, day 58): IL-17A; conditions: Dexamethasone oral 1 mg/kg, 20 times between day 28 and 57
Description: (§1) Critical administration 124 disclosed herein is further described below. Q5D represents administration 5 days a part. TBSV·pLIp1 and wt TBSV shown in Table 1 may include liquid form that are not sterile and stored in −20° C. TBSV·pLIp1 may be given at the dose of 50 μG/100 μL Male DBA/1J mice (8 weeks; Envigo, Italy) may be used for these studies. Mice may be housed in individual cages (two for each group) and maintained under a 12:12 light-dark cycle at 21° C.±1° C. and 50%±5% humidity. The animals may be acclimated to their environment for 1 week and had ad libitum access to tap water and standard rodent diet. All animal experiments may be complied with regulations in Italy (D.M. 116192), Europe (O.J of E.C. L 358/112/18/1986), and the United States (Animal Welfare Assurance Number A5594-01, Department of Health and Human Services, USA). […] Arthritis was assessed by using qualitative severity score system and hind paw volume (mL) measured by a plethysmometer on day 20, 22, 24, 26, 28, 30, 32, 34, 36, 38, 40, 42, 44, 46 48, 50, 52, 54, 56 and 58. Body weight was recorded on day 0, 6, 13, 16, 18, 20, 22, 24, 26, 28, 30, 32, 34, 36, 38, 40, 42, 44, 46, 50, 52, 54, 56 and 58. […]

TNF-α = test: Pro-inflammatory cytokines in sera of CIA Collagen mice (ELISA, day 58): TNF-α; conditions: Dexamethasone oral 1 mg/kg, 20 times between day 28 and 57
Description: as §1

IL-10 = test: Cytokine ELISA in CIA mice, day 60: IL-10; conditions: serum pooled from five CIA mice
From the text: With continued reference to FIG. 1, in some embodiments, administration 116 may be done to an animal. As a non-limiting example, the animal may include a mouse, a fish, a rabbit, human, and the like. As a non-limiting example, administration 116 of composition of the engineered virus-based nanoparticle for a treatment of an autoimmune condition may be done to dilute, brown, and non-agouti (DBA) mice based on their susceptibility to collagen-induced arthritis (CIA). Female DBA/1 mice 6 to 8 weeks of age may be maintained under specific pathogen-free conditions. CIA may be induced by the intradermal tail base injection of 100 μg of chicken type II collagen (Sigma-Aldrich) as previously described. Five mice per group may be immunized on days 0 and 21 to induce arthritis. The onset of disease may be confirmed on the day that swelling or erythema may be observed in any paw, typically 4 to 10 days after the second immunization. Each experimental group may be treated seven times, 5 days apart, starting from day 28 after the first immunization, with intraperitoneal injections of saline (200 μI per mouse), TBSV·pLIp1, TBSV·pFADK2, pLIp1+IFA, and pFADK2+IFA (all 50 μg per mouse in 200 μl) or dexamethasone (5 μg per mouse in 200 μl). […] CIA may be assessed using a macroscopic score system based on the visual identification of arthritic limbs.

IL-12p70 = test: Pro-inflammatory cytokines in sera of CIA Collagen mice (ELISA, day 58): IL-12p70; conditions: Dexamethasone oral 1 mg/kg, 20 times between day 28 and 57
Description: as §1

**Q.** Which “IL-17A, % of reduction vs CIA Collagen” value (IL-17A) does the source give for `C[C@@H]1C[C@H]2[C@@H]3CCC4=CC(=O)C=C[C@]4(C)[C@@]3(F)[C@@H](O)C[C@]2(C)[C@@]1(O)C(=O)CO` [Dexamethasone, dexamethasone] here?
**A.** 25.07%

**Q.** And the “TNF-α, % of reduction vs CIA Collagen” value (TNF-α)?
**A.** 12.02%

**Q.** What about the IL-10 (IL-10) of the same compound?
**A.** 71.6 pg/mL

**Q.** And the “IL-12p70, % of reduction vs CIA Collagen” value (IL-12p70)?
**A.** 37.95%
